Reference: PubChem BioAssay (NCI)
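Five compound concentrations were applied to cells in 96-well plates for 48 hours; endpoints were derived by simple linear interpolation of the resulting dose-response curve. At the GI50, growth is halved. TGI: total growth inhibition.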

Key:
Test in all cases: NCI tumour cell line growth inhibition, 48 h
[1] = tested on: LXFL 529 NSCLC
[2] = tested on: P388/ADR leukemia
[3] = tested on: P388 leukemia
[4] = tested on: RXF-631 renal

| SMILES | TGI [1] | TGI [2] | TGI [3] | further results |
| --- | --- | --- | --- | --- |
| O=C(CC(=O)c1ccccc1)CC(O)(c1ccccc1)c1ccccc1 | 17 µM |  |  |  |
| CC12CCC3C(CCC4=CC(O)CCC43C=O)C1(O)CCC2c1ccc(=O)oc1 (stereo not drawn) |  |  |  | GI50 [2]: 89 µM; GI50 [3]: 80.6 µM |
| COc1cc2c(cc1O)C1C(O)C(O)C=C3CCN(C2)C31 (stereo not drawn) | 34.9 µM |  |  | TGI [4]: 28.2 µM |
| CCCC(O)C(NC(=O)CCl)C(=O)O (stereo not drawn) |  | > 100 µM | > 100 µM |  |
| COc1cccc2c1C(=O)c1c(O)c3c(c(O)c1C2=O)C[C@@](O)(C(=O)CO)C[C@@H]3OC1CC(N)C(OC)C(C)O1 (stereo partly drawn) | 0.432 µM |  |  | TGI [4]: 0.747 µM |
| COc1cc(/C=C/C(=O)O)ccc1C(=O)OCc1ccccc1 |  | > 100 µM | > 100 µM |  |
| CC(C)=CCc1c(O)ccc2ccc(=O)oc12 |  | > 100 µM | > 100 µM |  |
